In patent US20250129084A1, “Compounds” (GlaxoSmithKline Intellectual Property Development Limited, priority 2022, published 2025):
Converted amounts (≈) assume the structure as drawn. Read-outs that look alike come from different tables or passages of the source.

What was measured:
[1] = test system: Mycobacterium tuberculosis H37Rv; assay: Mycobacterium tuberculosis in vitro H37Rv extracellular inhibition assay (OD readout); assay type: cell-based; conditions: 192 h, read-out: Assay 2 MIC (μM) extracellular
[2] = test system: Mycobacterium tuberculosis H37Rv in human macrophages THP-1; assay: Mycobacterium tuberculosis in vitro H37Rv in human macrophages THP-1 inhibition assay (intracellular assay); assay type: cell-based; conditions: read-out: Assay 3 MIC (μM) intracellular
Text: Assay 3 Mycobacterium tuberculosis In Vitro H37Rv in Human Macrophages THP-1 Inhibition Assay
This ex-vivo assay may represent physiological conditions that mimic disease and take into consideration the favourable contribution of host cells.

[3] = test system: Mycobacterium tuberculosis H37Rv; assay: Acute Mycobacterium tuberculosis in vivo assay
[4] = biological target: T1, Mycobacterium tuberculosis lysine tRNA synthetase (MtKRS) (Mycobacterium tuberculosis, UniProt P9WFU9); assay: biochemical; conditions: 40 nM MtKRS, 30 μM ATP, 12 μM L-lysine, 20 hours incubation; read-out: Assay 1 Mtb KRS
T1 construct: made in house; host or cells: E. coli BL21 (DE3)
T1 sequence (P9WFU9 whole entry): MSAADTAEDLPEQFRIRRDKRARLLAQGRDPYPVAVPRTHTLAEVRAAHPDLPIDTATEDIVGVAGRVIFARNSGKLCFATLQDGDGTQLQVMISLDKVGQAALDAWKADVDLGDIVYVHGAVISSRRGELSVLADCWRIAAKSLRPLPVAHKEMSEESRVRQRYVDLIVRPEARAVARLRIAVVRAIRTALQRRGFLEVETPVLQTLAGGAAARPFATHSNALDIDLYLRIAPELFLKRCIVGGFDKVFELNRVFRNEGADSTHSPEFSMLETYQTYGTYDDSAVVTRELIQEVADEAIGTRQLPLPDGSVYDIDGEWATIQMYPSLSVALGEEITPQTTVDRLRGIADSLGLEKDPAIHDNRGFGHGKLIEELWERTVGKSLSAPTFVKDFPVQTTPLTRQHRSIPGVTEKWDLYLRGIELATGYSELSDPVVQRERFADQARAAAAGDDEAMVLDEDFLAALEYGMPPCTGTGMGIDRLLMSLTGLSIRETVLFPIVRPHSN

[5] = H37Rv in THP-1 human macrophages

Compound	MIC ([1]; H37RV)	MIC ([2]; H37RV)	Log PCR reduction in acute efficacy study @ 50 mg/kg ([3]; C57BL/6 mice, 50 mg/kg oral once a day, day 1 to day 8)	Assay 4 ED99 ([3]; female C57BL/6 mice, intratracheal infection, oral once a day day 1 to day 8, lungs harvested day 9)	IC50 [4]	MIC ([1]; H37Rv, 7H9 medium, 8 days, Abs 590 nm)	MIC [2, 5]	CFU reduction @12 mg/kg (acute efficacy study) ([3]; C57BL/6 mice, 12 mg/kg oral once a day, day 1 to day 8)
CCOc1nc(N)nc2c1C(=O)N([C@@H]1CCCCC[C@@H]1O)C2 [Example 46, 2-Amino-4-ethoxy-6-((1R,2S)-2-hydroxycycloheptyl)-6,7-dihydro-5H-pyrrolo[3,4-d]pyrimidin-5-one]	0.5 µM (≈ 0.153 µg/mL)	1.1 µM (≈ 0.337 µg/mL)	3	7 mg/kg				
CNc1nc(N)nc2c1C(=O)N([C@H]1[C@@H](O)CCCCC1(F)F)C2 [Example 51, 2-Amino-6-((1S,7S)-2,2-difluoro-7-hydroxycycloheptyl)-4-(methylamino)-6,7-dihydro-5H-pyrrolo[3,4-d]pyrimidin-5-one]	1 µM (≈ 0.327 µg/mL)	0.3 µM (≈ 0.0982 µg/mL)			200 nM			
Nc1nc2c(c(-n3cccn3)n1)C(=O)N([C@H]1[C@@H](O)CCCCC1(F)F)C2 [Example 52, 2-Amino-6-((1S,7S)-2,2-difluoro-7-hydroxycycloheptyl)-4-(1H-pyrazol-1-yl)-6,7-dihydro-5H-pyrrolo[3,4-d]pyrimidin-5-one]					80 nM	0.1 µM (≈ 0.0364 µg/mL)	0.06 µM (≈ 0.0219 µg/mL)	0.4 (CFU reduction
CCOc1cnn(-c2nc(N)nc3c2C(=O)N([C@@H]2CCCC[C@@H]2O)C3)c1 [Example 53, 2-amino-4-(4-ethoxy-1H-pyrazol-1-yl)-6-((1R,2S)-2-hydroxycyclohexyl)-6,7-dihydro-5H-pyrrolo[3,4-d]pyrimidin-5-one]					300 nM		0.3 µM (≈ 0.108 µg/mL)	
CCOc1cnn(-c2nc(N)nc3c2C(=O)N([C@H]2CCCCC2(F)F)C3)c1 [Example 54, (S)-2-amino-6-(2,2-difluorocyclohexyl)-4-(4-ethoxy-1H-pyrazol-1-yl)-6,7-dihydro-5H-pyrrolo[3,4-d]pyrimidin-5-one]					200 nM			
